Source: the NIST ThermoML archive (doi:10.1016/j.jct.2013.08.021)

Key:
[1] = refractive index (Na D-line) (dimensionless); xn = mol fraction of the nth substance listed; details: 101 kPa, Liquid, Standard Abbe refractometry
[2] = xn = mol fraction of the nth substance listed; details: 101 kPa, Liquid; for speed of sound: Sing-around technique in a fixed-path interferometer; for mass density: Vibrating tube method

CCC[N+]1(C)CCCC1.O=S(=O)([N-]S(=O)(=O)C(F)(F)F)C(F)(F)F + CO
Details | mass density, 298.15 K [kg/m3] | mass density, 303.15 K [kg/m3] | mass density, 308.15 K [kg/m3] | refractive index, 298.15 K | refractive index, 303.15 K | refractive index, 308.15 K | speed of sound, 298.15 K [m/s] | speed of sound, 303.15 K [m/s] | speed of sound, 308.15 K [m/s]
[1], x2 = 0 | – | – | – | 1.42064 | 1.41926 | 1.41782 | – | – | –
[1], x2 = 0.0462 | – | – | – | 1.42002 | 1.41862 | 1.41719 | – | – | –
[1], x2 = 0.0901 | – | – | – | 1.41937 | 1.41801 | 1.41659 | – | – | –
[1], x2 = 0.1769 | – | – | – | 1.41794 | 1.41675 | 1.41551 | – | – | –
[1], x2 = 0.2722 | – | – | – | 1.41609 | 1.41503 | 1.4136 | – | – | –
[1], x2 = 0.3855 | – | – | – | 1.41327 | 1.41206 | 1.41063 | – | – | –
[1], x2 = 0.568 | – | – | – | 1.40659 | 1.4055 | 1.404 | – | – | –
[1], x2 = 0.685 | – | – | – | 1.39953 | 1.39832 | 1.39695 | – | – | –
[1], x2 = 0.798 | – | – | – | 1.38838 | 1.38703 | 1.38569 | – | – | –
[1], x2 = 0.8984 | – | – | – | 1.37031 | 1.36877 | 1.36712 | – | – | –
[1], x2 = 0.9467 | – | – | – | 1.35498 | 1.35335 | 1.35185 | – | – | –
[2], x2 = 0 | 1427.86 | 1423.26 | 1418.83 | – | – | – | 1270.6 | 1259.5 | 1248.6
[2], x2 = 0.0462 | 1423.37 | 1418.86 | 1414.35 | – | – | – | 1268.8 | 1257.7 | 1246.8
[2], x2 = 0.0901 | 1418.77 | 1414.23 | 1409.69 | – | – | – | 1266.9 | 1255.8 | 1244.9
[2], x2 = 0.1769 | 1408.88 | 1404.34 | 1399.8 | – | – | – | 1262.7 | 1251.6 | 1240.6
[2], x2 = 0.2722 | 1396.02 | 1391.43 | 1386.85 | – | – | – | 1257.1 | 1246 | 1234.9
[2], x2 = 0.3855 | 1376.42 | 1371.67 | 1367.04 | – | – | – | 1248.7 | 1237.4 | 1226.2
[2], x2 = 0.568 | 1329.02 | 1324.31 | 1319.61 | – | – | – | 1228.6 | 1217 | 1205.7
[2], x2 = 0.685 | 1279.72 | 1274.95 | 1270.18 | – | – | – | 1208.5 | 1196.8 | 1185.2
[2], x2 = 0.798 | 1201.72 | 1196.89 | 1192.05 | – | – | – | 1180.4 | 1168.2 | 1156.1
[2], x2 = 0.8984 | 1075.97 | 1071.1 | 1066.22 | – | – | – | 1144.6 | 1131.4 | 1118.3
[2], x2 = 0.9467 | 973.15 | 968.3 | 963.44 | – | – | – | 1124.5 | 1110.3 | 1096.2
